Laboratory results from ChEMBL document CHEMBL5346925, “3,4-Dihydrobenzo[e][1,2,3]oxathiazine 2,2-dioxide analogs act as potential AMPA receptor potentiators with antidepressant activity” (Eur J Med Chem, 2023).

Key:
[1] = Ratio of drug concentration in brain to plasma in Sprague-Dawley rat at 1 mg/kg, po measured after 4 hrs by LC-MS/MS analysis; assay type: ADME, organism-based; conditions: read-out: BPR
[2] = Ratio of drug concentration in brain to plasma in Sprague-Dawley rat at 1 mg/kg, po measured after 0.50 hrs by LC-MS/MS analysis; assay type: ADME, organism-based; conditions: read-out: BPR
[3] = AUC (0 to t) in Sprague-Dawley rat at 1 mg/kg, po by LC-MS/MS analysis; assay type: ADME, organism-based; parameters: dose 1 mg/kg, route po; conditions: in vivo
[4] = Oral bioavailability in Sprague-Dawley rat at 1 mg/kg by LC-MS/MS analysis; assay type: ADME, organism-based; conditions: in vivo
[5] = AUC (0 to infinity) in Sprague-Dawley rat at 1 mg/kg, po by LC-MS/MS analysis; assay type: ADME, organism-based; parameters: dose 1 mg/kg, route po; conditions: in vivo
[6] = Toxicity in mouse assessed as change in body weight at 0.2 to 0.4 mg/kg, ip administered once daily for 2 weeks; assay type: organism-based; conditions: in vivo, 336 h, dose 0.2-0.4 mg/kg
[7] = MRT (0 to t) in Sprague-Dawley rat at 1 mg/kg, po by LC-MS/MS analysis; assay type: ADME, organism-based; conditions: in vivo
[8] = target: Glutamate receptor ionotropic, AMPA (Rattus norvegicus, UniProt P19490+P19491+P19492+P19493); assay: Agonist activity at AMPA receptor in rat Primary neuron cells; assay type: cell-based
[9] = Ratio of drug concentration in brain to plasma in Sprague-Dawley rat at 1 mg/kg, po measured after 6 hrs by LC-MS/MS analysis; assay type: ADME, organism-based; conditions: read-out: BPR
[10] = Toxicity in mouse assessed as histopathological changes in spleen at 0.2 to 0.4 mg/kg, ip administered once daily for 2 weeks and measured after 15 days by H and E staining based analysis; assay type: organism-based; conditions: in vivo, 360 h, dose 0.2-0.4 mg/kg, time 15 day
[11] = Cmax in Sprague-Dawley rat at 1 mg/kg, po by LC-MS/MS analysis; assay type: ADME, organism-based; parameters: dose 1 mg/kg, route po; conditions: in vivo
[12] = Drug concentration in Sprague-Dawley rat brain at 1 mg/kg, po measured after 4 hrs by LC-MS/MS analysis; assay type: ADME, organism-based; conditions: read-out: Ct

- Kp at 4 h [1]: 1.55
- Kp at 0.5 h [2]: 1.08
- AUC(0-t) [3]: 805 ng·h/mL
- bioavailability [4]: 67.2%
- AUC(0-inf) [5]: 833 ng·h/mL
- MRT last [7]: 5.22 h
- EC50 [8]: 178 nM
- Kp at 6 h [9]: 1.73
- Cmax [11]: 142 ng/mL
- concentration at 4 h [12]: 120 ng/g
Structure (SMILES): O=S1(=O)NCc2cccc(-c3ccc(-c4ccccc4F)cc3)c2O1
- Activity [6]: Non-Toxic
- Activity [10]: Non-Toxic
